± gives the expanded uncertainty stated by the source.
Test: xn = mol fraction of the nth substance listed
Settings: 101 kPa, Liquid, Linear variable-path acoustic interferometer

C=CC(=O)OC [methyl propenoate] + CCCCO
speed of sound [m/s]
Settings | 288.15 K | 293.15 K | 298.15 K | 303.15 K | 308.15 K | 313.15 K | 318.15 K
x1 = 0.0777 | 1271.2 ± 1.9 | 1250.8 ± 1.9 | 1230.5 ± 1.8 | 1212.8 ± 1.8 | 1193.9 ± 1.8 | 1174.9 ± 1.8 | 1155 ± 1.8
x1 = 0.1555 | 1261.3 ± 1.9 | 1240.6 ± 1.8 | 1220.1 ± 1.8 | 1202.2 ± 1.8 | 1182.9 ± 1.8 | 1163.7 ± 1.8 | 1143.8 ± 1.8
x1 = 0.2273 | 1253.3 ± 1.9 | 1232.6 ± 1.8 | 1212.2 ± 1.8 | 1194.2 ± 1.8 | 1174.7 ± 1.8 | 1155.5 ± 1.8 | 1135.6 ± 1.7
x1 = 0.299 | 1247 ± 1.8 | 1226.3 ± 1.8 | 1205.9 ± 1.8 | 1187.7 ± 1.8 | 1167.9 ± 1.8 | 1148.7 ± 1.8 | 1128.7 ± 1.7
x1 = 0.3791 | 1241.3 ± 1.8 | 1220.5 ± 1.8 | 1200.2 ± 1.8 | 1181.7 ± 1.8 | 1161.6 ± 1.8 | 1142.2 ± 1.7 | 1122.1 ± 1.7
x1 = 0.4593 | 1236.9 ± 1.8 | 1216.1 ± 1.8 | 1195.7 ± 1.8 | 1176.8 ± 1.8 | 1156.4 ± 1.8 | 1136.8 ± 1.7 | 1116.5 ± 1.7
x1 = 0.5344 | 1233.9 ± 1.8 | 1212.8 ± 1.8 | 1192.4 ± 1.8 | 1173.1 ± 1.8 | 1152.4 ± 1.7 | 1132.5 ± 1.7 | 1111.9 ± 1.7
x1 = 0.6095 | 1231.7 ± 1.8 | 1210.5 ± 1.8 | 1189.9 ± 1.8 | 1170.3 ± 1.8 | 1149.2 ± 1.7 | 1128.9 ± 1.7 | 1108 ± 1.7
x1 = 0.6789 | 1230.3 ± 1.8 | 1208.9 ± 1.8 | 1188.2 ± 1.8 | 1168.2 ± 1.8 | 1146.7 ± 1.7 | 1126.2 ± 1.7 | 1104.9 ± 1.7
x1 = 0.7483 | 1229.2 ± 1.8 | 1207.7 ± 1.8 | 1186.9 ± 1.8 | 1166.6 ± 1.8 | 1144.6 ± 1.7 | 1123.8 ± 1.7 | 1102.3 ± 1.7
x1 = 0.8099 | 1228.5 ± 1.8 | 1206.9 ± 1.8 | 1186 ± 1.8 | 1165.4 ± 1.8 | 1143.1 ± 1.7 | 1122.1 ± 1.7 | 1100.4 ± 1.7
x1 = 0.8715 | 1228 ± 1.8 | 1206.2 ± 1.8 | 1185.3 ± 1.8 | 1164.4 ± 1.8 | 1141.7 ± 1.7 | 1120.6 ± 1.7 | 1098.6 ± 1.7
x1 = 0.9358 | 1227.4 ± 1.8 | 1205.5 ± 1.8 | 1184.5 ± 1.8 | 1163.4 ± 1.7 | 1140.4 ± 1.7 | 1119 ± 1.7 | 1096.9 ± 1.7
x1 = 1 | 1226.6 ± 1.8 | 1204.6 ± 1.8 | 1183.6 ± 1.8 | 1162.2 ± 1.7 | 1139.1 ± 1.7 | 1117.8 ± 1.7 | 1095.7 ± 1.7

From the NIST ThermoML archive (doi:10.1016/j.jct.2012.11.027)
